Results taken from US12071421B2, “Process for the synthesis of substituted chloromethyl dialkylphosphates” (HELSINN HEALTHCARE SA, priority 2011, dated 2024).
Values after ≈ are worked out from the molar mass of the structure shown. Values belong to the molecule of their own block, whether it stands above or below them.

Tests used:
[1] = Stability studies of GA1 parent acid species and its salts (degradation on storage)
Method: Their synthesis employed either a) neutralization of the dried diacid phosphate species and its corresponding base salts or b) a direct acid deprotection starting from the dried di(tert-butyl)-protected phosphate species. Neutralization was performed with L-histidine, magnesium salt, N-methyl-D-glucamine (dimeglumine), and L-lysine. Both procedures were tried in the synthesis of citric derivatives whereas with other acids the direct deprotection reaction was used. The figures below show the most relevant structures.
Alphabetical letters are used to denote data points on the graph that correspond to degradation percentage values over time for respective salts of the same parent compound as just described above and in Table 2 below.

[2] = Dog PKs study / comparative bioequivalence (IV vs oral netupitant); format: in vivo, Beagle dogs
Method: The pharmacokinetics (PKs) study of three compounds (e.g., compound nos. 1-3 of the above Table 3), as compared to a reference compound—netupitant (orally administered), on rat and dog was conducted.
Dog PKs Study: the dogs tested in the study were Beagle dogs, body weight 8-10 kg, and 3 male dogs per group. The four PK experiments were performed in 12 naïve dogs. The dose was 3 mg/kg administered via intravenous (IV) slow injection into the left and right cephalic or left and right saphenous veins used in rotation. […] The dose was administered to each animal on the basis of the most recently recorded body weight and the volume administered was recorded for each animal. Netupitant 3 mg/kg dose was tested at 2 ml/kg in vehicle (DMSO:Ethanol:Tween80 solution=[…], v/v), dependence on its solubility. Dose was freshly prepared before each single PK experiment. Before administration, dogs were fasted 12 hr, water ad libitum. After 480 min time point blood was collected, dogs were fed. 0.5 ml blood was collected in heparinised tubes at pre-dose and at 2, 5, 15, 30 min, 1, 2, 4, 6, 8, 12, 24, 36, 48 and 72 hr after intravenous administration. […] Prepared quantification standard curve at 2, 10, 40, 100, 200, 1000 and 2000 ng/ml (diluted from methanol stock with methanol containing 1% formic acid). […] Dog plasma samples were analyzed by using an API4000 MS coupled with HPLC. […]

[3] = Aqueous solubility (neutral pH); format: physicochemical; details: for solubility: aqueous medium
[4] = Chemical stability according to ICH guidelines under accelerated conditions (40° C.); format: physicochemical
Method: Stability was tested according to ICH guidelines under accelerated conditions (40° C.).

Degradation ([1]; 12 days): +1.80% in 12 days (in argon)
Degradation ([1]; 14 days): +1.95% in 14 days (in air)
Structure (SMILES): Cc1ccccc1-c1cc(N2CC[N+](C)(COP(=O)([O-])O)CC2)ncc1N(C)C(=O)C(C)(C)c1cc(C(F)(F)F)cc(C(F)(F)F)c1 [1. NaOH, 3 eq. 2. Fumaric acid, 1 eq.]

bioequivalence to oral netupitant at the same dose ([2]; IV): bioequivalent
solubility ([3]; pH 7): 10 to 15 mg/mL
Chemical Stability [4]: medium
Structure (SMILES): Cc1ccccc1-c1cc(N2CC[N+](C)(COP(=O)(O)O)CC2)ncc1N(C)C(=O)C(C)(C)c1cc(C(F)(F)F)cc(C(F)(F)F)c1 [Compound 1]

solubility ([3]; pH 7): ~0.6 mg/mL (≈ 1010 µM)
Chemical Stability [4]: medium
Structure (SMILES): Cc1ccccc1-c1cc(N2CCN(C)CC2)[n+]([O-])cc1N(C)C(=O)C(C)(C)c1cc(C(F)(F)F)cc(C(F)(F)F)c1 [Compound 4]

solubility ([3]; pH 7): ~1 mg/mL (≈ 1680 µM)
Chemical Stability [4]: medium
Structure (SMILES): Cc1ccccc1-c1cc([N+]2([O-])CCN(C)CC2)ncc1N(C)C(=O)C(C)(C)c1cc(C(F)(F)F)cc(C(F)(F)F)c1 [Compound 5, reference compound]

Chemical Stability [4]: low
Structure (SMILES): Cc1ccccc1-c1cc([N+]2([O-])CCN(C)CC2)[n+]([O-])cc1N(C)C(=O)C(C)(C)c1cc(C(F)(F)F)cc(C(F)(F)F)c1 [Compound 6]

Solubility (neutral pH) [3]: insoluble
Chemical Stability [4]: low
Structure (SMILES): CC(=O)OC[N+]1(C)CCN(c2cc(-c3ccccc3C)c(N(C)C(=O)C(C)(C)c3cc(C(F)(F)F)cc(C(F)(F)F)c3)cn2)CC1 [Compound 7]

Solubility (neutral pH) [3]: insoluble
Chemical Stability [4]: Low
Structure (SMILES): CCCC(=O)OC[N+]1(C)CCN(c2cc(-c3ccccc3C)c(N(C)C(=O)C(C)(C)c3cc(C(F)(F)F)cc(C(F)(F)F)c3)cn2)CC1 [Compound 8]

AUC(0-t) ([2]; male, beagle, plasma, PO, 3 mg/kg, read-out: Mean AUC0-t (converted)): 5.12 µg·h/mL
solubility ([3]; pH 7, unit inferred): 0.25 mg/mL (≈ 432 µM)
Structure (SMILES): Cc1ccccc1-c1cc(N2CCN(C)CC2)ncc1N(C)C(=O)C(C)(C)c1cc(C(F)(F)F)cc(C(F)(F)F)c1 [Compound 9, 2-(3,5-bis(trifluoromethyl)phenyl)-N,2-dimethyl-N-(6-(4-methylpiperazin-1-yl)-4-(o-tolyl)pyridin-3-yl)propanamide, reference compound]

Product stability (comment) [1]: Product degrades rapidly.
Structure (SMILES): Cc1ccccc1-c1cc(N2CC[N+](C)(COP(=O)([O-])O)CC2)ncc1N(C)C(=O)C(C)(C)c1cc(C(F)(F)F)cc(C(F)(F)F)c1 [HBr, 48%, 4 eq.]

Degradation ([1]; 12 days): +0.48% in 12 days (in argon)
Degradation ([1]; 14 days): +0.69% in 14 days (in air)
Structure (SMILES): Cc1ccccc1-c1cc(N2CC[N+](C)(COP(=O)([O-])O)CC2)ncc1N(C)C(=O)C(C)(C)c1cc(C(F)(F)F)cc(C(F)(F)F)c1 [L-lysine, 1 eq.]

Degradation ([1]; 6 days): +0.87% in 6 days (in air)
Degradation ([1]; 11 days): +1.52% in 11 days (in argon)
Structure (SMILES): Cc1ccccc1-c1cc(N2CC[N+](C)(COP(=O)([O-])O)CC2)ncc1N(C)C(=O)C(C)(C)c1cc(C(F)(F)F)cc(C(F)(F)F)c1 [N-methyl-D-glucamine (Meglumine), 2 eq.]

resistance to decoupling of the oxo-phosphonomethyl and reversion of the active moiety to its parent state [1]: tremendously resistant
Structure (SMILES): Cc1ccccc1-c1cc(N2CC[N+](C)(COP(=O)(O)O)CC2)ncc1N(C)C(=O)C(C)(C)c1cc(C(F)(F)F)cc(C(F)(F)F)c1.Cl.[Cl-] [chloride hydrochloride HCl salt of GA1, 4-(5-(2-(3,5-bis(trifluoromethyl)phenyl)-N,2-dimethylpropanamido)-4-(o-tolyl)pyridin-2-yl)-1-methyl-1-((phosphonooxy)methyl)piperazin-1-ium chloride hydrochloride]

Degradation ([1]; 1 week): over 8
Degradation ([1]; 6 months): over 65%
total degradation ([1]; 6 months): 7.0300
Structure (SMILES): Cc1ccccc1-c1cc(N2CC[N+](C)(COP(=O)([O-])O)CC2)ncc1N(C)C(=O)C(C)(C)c1cc(C(F)(F)F)cc(C(F)(F)F)c1 [parent acid species]
